According to ChEMBL document CHEMBL4507281, “Data for DCP probe BI-4394” (2021):

Experiments:
[1] = tested on: Tyrosine-protein kinase ABL1 (Homo sapiens), P00519 [Q252H]; details: Compound concentration 100.0 nM
[2] = target: Tyrosine-protein kinase ABL2 (Homo sapiens) (UniProt P42684); details: Compound concentration 100.0 nM
[3] = target: Activin receptor type-2B (Homo sapiens) (UniProt Q13705); details: Compound concentration 100.0 nM
[4] = target: Tyrosine-protein kinase receptor UFO (Homo sapiens) (UniProt P30530); details: Compound concentration 100.0 nM
[5] = target: Tyrosine-protein kinase BTK (Homo sapiens) (UniProt Q06187); details: Compound concentration 100.0 nM
[6] = target: Calcium/calmodulin-dependent protein kinase type 1D (Homo sapiens) (UniProt Q8IU85); details: Compound concentration 100.0 nM
[7] = target: Cyclin-dependent kinase 8 (Homo sapiens) (UniProt P49336); details: Compound concentration 100.0 nM
[8] = target: Serine/threonine-protein kinase Chk2 (Homo sapiens) (UniProt O96017); details: Compound concentration 100.0 nM
[9] = target: Casein kinase I isoform alpha-like (Homo sapiens) (UniProt Q8N752); details: Compound concentration 100.0 nM
Casein kinase I isoform alpha-like (Homo sapiens), sequence (Q8N752 whole entry, canonical isoform): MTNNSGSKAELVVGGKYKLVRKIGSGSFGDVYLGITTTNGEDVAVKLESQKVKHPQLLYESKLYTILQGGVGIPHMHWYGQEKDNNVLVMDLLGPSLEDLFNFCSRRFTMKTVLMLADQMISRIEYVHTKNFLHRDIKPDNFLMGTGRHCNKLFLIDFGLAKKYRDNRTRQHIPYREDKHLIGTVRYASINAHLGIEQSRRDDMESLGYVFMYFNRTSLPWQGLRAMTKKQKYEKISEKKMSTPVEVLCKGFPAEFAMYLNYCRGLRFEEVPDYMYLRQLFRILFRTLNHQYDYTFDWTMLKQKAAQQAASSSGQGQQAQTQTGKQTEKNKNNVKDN

[10] = target: Serine/threonine-protein kinase MRCK gamma (Homo sapiens) (UniProt Q6DT37); details: Compound concentration 100.0 nM
[11] = target: Serine/threonine-protein kinase 17A (Homo sapiens) (UniProt Q9UEE5); details: Compound concentration 100.0 nM
[12] = tested on: Epidermal growth factor receptor (Homo sapiens), P00533 [UNDEFINED MUTATION]; details: Compound concentration 100.0 nM
[13] = tested on: Epidermal growth factor receptor (Homo sapiens), P00533 [G719S]; details: Compound concentration 100.0 nM
[14] = tested on: Epidermal growth factor receptor (Homo sapiens), P00533 [L858R,T790M]; details: Compound concentration 100.0 nM
[15] = target: Ephrin type-A receptor 2 (Homo sapiens) (UniProt P29317); details: Compound concentration 100.0 nM
[16] = tested on: Receptor-type tyrosine-protein kinase FLT3 (Homo sapiens), P36888 [D835H]; details: Compound concentration 100.0 nM
[17] = target: Inhibitor of nuclear factor kappa-B kinase subunit alpha (Homo sapiens) (UniProt O15111); details: Compound concentration 100.0 nM
[18] = target: Tyrosine-protein kinase ITK/TSK (Homo sapiens) (UniProt Q08881); details: Compound concentration 100.0 nM
[19] = target: Mitogen-activated protein kinase kinase kinase 3 (Homo sapiens) (UniProt Q99759); details: Compound concentration 100.0 nM
[20] = target: Mitogen-activated protein kinase kinase kinase kinase 4 (Homo sapiens) (UniProt O95819); details: Compound concentration 100.0 nM
[21] = target: Tyrosine-protein kinase Mer (Homo sapiens) (UniProt Q12866); details: Compound concentration 100.0 nM
[22] = target: Macrophage-stimulating protein receptor (Homo sapiens) (UniProt Q04912); details: Compound concentration 100.0 nM
[23] = target: Serine/threonine-protein kinase Nek11 (Homo sapiens) (UniProt Q8NG66); details: Compound concentration 100.0 nM
[24] = target: Serine/threonine-protein kinase Nek2 (Homo sapiens) (UniProt P51955); details: Compound concentration 100.0 nM
Serine/threonine-protein kinase Nek2 (Homo sapiens), sequence (P51955 whole entry): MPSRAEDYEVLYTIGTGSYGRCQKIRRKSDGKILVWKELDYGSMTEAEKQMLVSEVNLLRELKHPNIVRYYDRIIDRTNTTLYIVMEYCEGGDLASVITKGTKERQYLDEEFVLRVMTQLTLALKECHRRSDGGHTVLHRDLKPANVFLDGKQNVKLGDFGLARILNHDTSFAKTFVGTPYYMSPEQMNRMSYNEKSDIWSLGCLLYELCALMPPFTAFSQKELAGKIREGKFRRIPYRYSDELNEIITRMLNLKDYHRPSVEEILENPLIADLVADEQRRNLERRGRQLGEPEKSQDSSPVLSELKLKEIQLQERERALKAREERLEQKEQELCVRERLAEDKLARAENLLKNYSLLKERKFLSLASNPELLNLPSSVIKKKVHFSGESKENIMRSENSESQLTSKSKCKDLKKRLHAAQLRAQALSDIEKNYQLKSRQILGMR

[25] = target: Mitogen-activated protein kinase kinase kinase 14 (Homo sapiens) (UniProt Q99558); details: Compound concentration 100.0 nM
[26] = target: Mitogen-activated protein kinase 14 (Homo sapiens) (UniProt Q16539); details: Compound concentration 100.0 nM
Mitogen-activated protein kinase 14 (Homo sapiens), sequence (Q16539 whole entry, canonical isoform): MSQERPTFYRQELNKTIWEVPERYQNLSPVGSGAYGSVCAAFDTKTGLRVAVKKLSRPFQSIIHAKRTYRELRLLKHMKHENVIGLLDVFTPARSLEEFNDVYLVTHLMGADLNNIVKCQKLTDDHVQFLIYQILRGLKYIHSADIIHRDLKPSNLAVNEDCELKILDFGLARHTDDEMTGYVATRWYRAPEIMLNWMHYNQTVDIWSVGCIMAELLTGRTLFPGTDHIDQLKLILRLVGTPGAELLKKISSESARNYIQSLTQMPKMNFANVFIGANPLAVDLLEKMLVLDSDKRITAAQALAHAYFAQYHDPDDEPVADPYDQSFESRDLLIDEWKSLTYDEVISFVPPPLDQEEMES

[27] = target: Phosphatidylinositol 4,5-bisphosphate 3-kinase catalytic subunit alpha isoform (Homo sapiens) (UniProt P42336); details: Compound concentration 100.0 nM
[28] = tested on: Phosphatidylinositol 4,5-bisphosphate 3-kinase catalytic subunit alpha isoform (Homo sapiens), P42336 [E545K]; details: Compound concentration 100.0 nM
[29] = tested on: Phosphatidylinositol 4,5-bisphosphate 3-kinase catalytic subunit alpha isoform (Homo sapiens), P42336 [I800L]; details: Compound concentration 100.0 nM
[30] = target: Serine/threonine-protein kinase pim-3 (Homo sapiens) (UniProt Q86V86); details: Compound concentration 100.0 nM
[31] = target: Protein kinase C eta type (Homo sapiens) (UniProt P24723); details: Compound concentration 100.0 nM
[32] = target: Ribosomal protein S6 kinase alpha-3 (Homo sapiens) (UniProt P51812); details: Compound concentration 100.0 nM
[33] = target: Ribosomal protein S6 kinase alpha-2 (Homo sapiens) (UniProt Q15349); details: Compound concentration 100.0 nM
[34] = target: Uncharacterized serine/threonine-protein kinase SBK3 (Homo sapiens) (UniProt P0C264); details: Compound concentration 100.0 nM
Uncharacterized serine/threonine-protein kinase SBK3 (Homo sapiens), sequence (P0C264 whole entry): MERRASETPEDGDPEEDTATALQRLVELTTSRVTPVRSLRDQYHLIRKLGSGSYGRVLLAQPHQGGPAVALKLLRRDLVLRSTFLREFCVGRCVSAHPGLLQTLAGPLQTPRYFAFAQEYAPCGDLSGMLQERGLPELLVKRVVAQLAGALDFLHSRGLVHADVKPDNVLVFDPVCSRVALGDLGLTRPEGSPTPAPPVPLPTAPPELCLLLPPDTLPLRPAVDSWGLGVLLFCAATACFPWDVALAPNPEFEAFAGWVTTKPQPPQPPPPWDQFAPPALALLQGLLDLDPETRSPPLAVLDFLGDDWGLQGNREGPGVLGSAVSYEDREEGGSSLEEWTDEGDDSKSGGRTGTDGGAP

[35] = target: Serine/threonine-protein kinase Sgk2 (Homo sapiens) (UniProt Q9HBY8); details: Compound concentration 100.0 nM
[36] = target: Serine/threonine-protein kinase tousled-like 1 (Homo sapiens) (UniProt Q9UKI8); details: Compound concentration 100.0 nM
[37] = target: TRAF2 and NCK-interacting protein kinase (Homo sapiens) (UniProt Q9UKE5); details: Compound concentration 100.0 nM
[38] = target: High affinity nerve growth factor receptor (Homo sapiens) (UniProt P04629); details: Compound concentration 100.0 nM
High affinity nerve growth factor receptor (Homo sapiens), sequence (P04629 33-796 limits assumed): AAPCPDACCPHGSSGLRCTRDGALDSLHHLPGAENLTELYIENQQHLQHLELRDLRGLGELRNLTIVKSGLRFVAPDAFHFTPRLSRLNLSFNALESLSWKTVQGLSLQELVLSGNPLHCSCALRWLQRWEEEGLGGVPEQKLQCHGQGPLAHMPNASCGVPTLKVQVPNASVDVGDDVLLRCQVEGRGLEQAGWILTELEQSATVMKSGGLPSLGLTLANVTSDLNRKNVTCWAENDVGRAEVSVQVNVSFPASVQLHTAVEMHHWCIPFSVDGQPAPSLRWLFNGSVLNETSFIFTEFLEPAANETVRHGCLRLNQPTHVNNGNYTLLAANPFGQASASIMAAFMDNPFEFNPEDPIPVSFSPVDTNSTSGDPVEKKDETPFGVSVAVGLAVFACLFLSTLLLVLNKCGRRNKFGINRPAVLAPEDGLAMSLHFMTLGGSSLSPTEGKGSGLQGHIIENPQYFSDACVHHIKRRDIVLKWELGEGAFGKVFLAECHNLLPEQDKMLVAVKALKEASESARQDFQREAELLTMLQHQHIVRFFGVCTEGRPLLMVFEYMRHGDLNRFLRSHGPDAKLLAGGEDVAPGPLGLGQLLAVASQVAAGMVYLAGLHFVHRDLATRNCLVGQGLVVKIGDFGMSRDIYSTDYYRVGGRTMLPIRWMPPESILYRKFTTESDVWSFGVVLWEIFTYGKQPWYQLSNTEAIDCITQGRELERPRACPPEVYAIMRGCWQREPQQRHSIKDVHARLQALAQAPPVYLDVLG

[39] = target: Testis-specific serine/threonine-protein kinase 1 (Homo sapiens) (UniProt Q9BXA7); details: Compound concentration 100.0 nM
Testis-specific serine/threonine-protein kinase 1 (Homo sapiens), sequence (Q9BXA7 whole entry): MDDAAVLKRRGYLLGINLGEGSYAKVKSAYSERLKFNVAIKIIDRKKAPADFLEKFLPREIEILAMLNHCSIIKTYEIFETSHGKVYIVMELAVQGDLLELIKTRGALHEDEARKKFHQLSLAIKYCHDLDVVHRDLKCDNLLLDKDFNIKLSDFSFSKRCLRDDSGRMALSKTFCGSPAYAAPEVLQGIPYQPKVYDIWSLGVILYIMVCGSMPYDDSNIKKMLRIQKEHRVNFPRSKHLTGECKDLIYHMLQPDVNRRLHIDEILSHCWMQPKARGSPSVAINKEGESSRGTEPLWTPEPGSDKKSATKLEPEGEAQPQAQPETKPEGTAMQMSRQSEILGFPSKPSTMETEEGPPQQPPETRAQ

[40] = target: Serine/threonine-protein kinase ULK1 (Homo sapiens) (UniProt O75385); details: Compound concentration 100.0 nM
[41] = target: Serine/threonine-protein kinase ULK2 (Homo sapiens) (UniProt Q8IYT8); details: Compound concentration 100.0 nM
[42] = target: Vascular endothelial growth factor receptor 2 (Homo sapiens) (UniProt P35968); details: Compound concentration 100.0 nM
[43] = target: Wee1-like protein kinase 2 (Homo sapiens) (UniProt P0C1S8); details: Compound concentration 100.0 nM
[44] = target: Serine/threonine-protein kinase WNK1 (Homo sapiens) (UniProt Q9H4A3); details: Compound concentration 100.0 nM
Serine/threonine-protein kinase WNK1 (Homo sapiens), sequence (Q9H4A3 whole entry, looked up): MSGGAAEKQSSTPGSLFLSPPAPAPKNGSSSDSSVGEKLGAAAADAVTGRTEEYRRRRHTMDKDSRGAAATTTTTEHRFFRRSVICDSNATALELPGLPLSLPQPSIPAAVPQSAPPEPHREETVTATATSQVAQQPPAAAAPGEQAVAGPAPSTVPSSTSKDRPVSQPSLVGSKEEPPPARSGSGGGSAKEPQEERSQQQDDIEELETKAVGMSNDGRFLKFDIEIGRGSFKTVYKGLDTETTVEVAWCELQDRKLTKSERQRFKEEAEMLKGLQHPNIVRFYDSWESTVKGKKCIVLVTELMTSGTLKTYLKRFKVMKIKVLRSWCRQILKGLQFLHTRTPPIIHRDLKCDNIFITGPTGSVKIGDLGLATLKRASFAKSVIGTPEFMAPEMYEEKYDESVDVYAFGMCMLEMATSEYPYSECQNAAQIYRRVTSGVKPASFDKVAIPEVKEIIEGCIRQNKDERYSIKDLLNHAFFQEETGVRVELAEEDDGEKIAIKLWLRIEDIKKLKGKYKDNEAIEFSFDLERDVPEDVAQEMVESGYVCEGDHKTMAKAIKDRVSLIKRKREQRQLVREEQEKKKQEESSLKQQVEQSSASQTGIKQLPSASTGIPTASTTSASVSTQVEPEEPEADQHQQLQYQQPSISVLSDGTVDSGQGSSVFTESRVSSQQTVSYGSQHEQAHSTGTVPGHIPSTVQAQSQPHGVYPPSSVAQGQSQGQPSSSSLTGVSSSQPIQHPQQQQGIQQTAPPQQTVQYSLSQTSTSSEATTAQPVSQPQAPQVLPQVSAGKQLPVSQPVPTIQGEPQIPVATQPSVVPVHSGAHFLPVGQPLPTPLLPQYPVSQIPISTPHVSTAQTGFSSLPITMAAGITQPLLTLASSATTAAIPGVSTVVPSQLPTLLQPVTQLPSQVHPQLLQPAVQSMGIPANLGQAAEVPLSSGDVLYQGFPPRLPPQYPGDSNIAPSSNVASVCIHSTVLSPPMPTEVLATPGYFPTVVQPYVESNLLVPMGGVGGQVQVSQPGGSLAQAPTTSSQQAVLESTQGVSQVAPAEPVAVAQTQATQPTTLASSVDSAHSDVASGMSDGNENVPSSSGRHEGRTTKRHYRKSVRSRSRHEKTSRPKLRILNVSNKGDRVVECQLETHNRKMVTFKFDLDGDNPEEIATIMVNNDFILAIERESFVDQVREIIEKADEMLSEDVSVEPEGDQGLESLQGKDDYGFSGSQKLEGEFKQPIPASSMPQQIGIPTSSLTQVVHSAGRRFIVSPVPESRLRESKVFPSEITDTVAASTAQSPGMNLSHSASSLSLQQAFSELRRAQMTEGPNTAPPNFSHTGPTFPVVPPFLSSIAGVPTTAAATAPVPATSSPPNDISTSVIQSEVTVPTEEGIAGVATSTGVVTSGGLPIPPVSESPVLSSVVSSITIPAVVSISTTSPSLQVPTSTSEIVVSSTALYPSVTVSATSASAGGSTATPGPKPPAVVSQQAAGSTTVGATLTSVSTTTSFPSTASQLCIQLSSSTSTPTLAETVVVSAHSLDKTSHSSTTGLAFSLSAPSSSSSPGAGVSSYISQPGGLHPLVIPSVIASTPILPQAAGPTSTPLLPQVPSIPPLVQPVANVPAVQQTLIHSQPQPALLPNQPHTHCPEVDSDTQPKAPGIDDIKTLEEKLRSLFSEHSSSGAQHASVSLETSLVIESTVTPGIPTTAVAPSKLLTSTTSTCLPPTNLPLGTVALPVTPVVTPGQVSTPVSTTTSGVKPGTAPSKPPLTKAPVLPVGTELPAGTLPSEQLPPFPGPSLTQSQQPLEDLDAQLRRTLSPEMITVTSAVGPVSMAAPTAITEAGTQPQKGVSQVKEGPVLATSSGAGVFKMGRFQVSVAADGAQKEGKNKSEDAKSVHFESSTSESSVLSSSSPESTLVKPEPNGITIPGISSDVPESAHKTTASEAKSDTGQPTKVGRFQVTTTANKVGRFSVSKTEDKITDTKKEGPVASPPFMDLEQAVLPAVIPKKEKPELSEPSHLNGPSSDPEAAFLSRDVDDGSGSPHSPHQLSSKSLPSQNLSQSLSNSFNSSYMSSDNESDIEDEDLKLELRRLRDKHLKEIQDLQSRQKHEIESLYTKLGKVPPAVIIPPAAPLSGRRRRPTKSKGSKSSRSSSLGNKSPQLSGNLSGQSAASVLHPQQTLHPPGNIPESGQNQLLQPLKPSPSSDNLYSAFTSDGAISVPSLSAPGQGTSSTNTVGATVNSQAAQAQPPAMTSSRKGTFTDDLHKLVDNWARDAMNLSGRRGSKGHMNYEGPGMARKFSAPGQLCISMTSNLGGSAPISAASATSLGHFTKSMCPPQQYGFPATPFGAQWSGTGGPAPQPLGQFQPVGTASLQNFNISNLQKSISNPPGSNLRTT

[45] = target: Muscarinic acetylcholine receptor M4 (Homo sapiens) (UniProt P08173); details: Compound concentration 10.0 uM

Q: With `Cn1nc(C(=O)NCc2ccc(C(=O)O)cc2)cc1-c1ccc2[nH]ccc2c1` [BI 4395] as the compound, how does the residual activity [1] read?
A: The residual activity was 77%.

Q: What about the residual activity [2] of the same compound?
A: Its residual activity is 93%.

Q: What about the residual activity [3] of the same compound?
A: The residual activity was 100%.

Q: And the residual activity [4]?
A: The residual activity was 89%.

Q: What about the residual activity [5] of the same compound?
A: The residual activity was 77%.

Q: What about the residual activity [6] of the same compound?
A: Its residual activity is 95%.

Q: What about the residual activity [7] of the same compound?
A: The residual activity was 100%.

Q: And the residual activity [8]?
A: The residual activity was 100%.

Q: What about the residual activity [9] of the same compound?
A: Its residual activity is 94%.

Q: What about the residual activity [10] of the same compound?
A: Its residual activity is 100%.

Q: And the residual activity [11]?
A: The residual activity was 92%.

Q: What about the residual activity [12] of the same compound?
A: Its residual activity is 100%.

Q: What about the residual activity [13] of the same compound?
A: The residual activity was 66%.

Q: What about the residual activity [14] of the same compound?
A: Its residual activity is 92%.

Q: What about the residual activity [15] of the same compound?
A: Its residual activity is 95%.

Q: And the residual activity [16]?
A: The residual activity was 46%.

Q: What about the residual activity [17] of the same compound?
A: Its residual activity is 90%.

Q: What about the residual activity [18] of the same compound?
A: The residual activity was 85%.

Q: What about the residual activity [19] of the same compound?
A: The residual activity was 78%.

Q: What about the residual activity [20] of the same compound?
A: The residual activity was 92%.

Q: What about the residual activity [21] of the same compound?
A: Its residual activity is 40%.

Q: And the residual activity [22]?
A: Its residual activity is 100%.

Q: What about the residual activity [23] of the same compound?
A: Its residual activity is 83%.

Q: What about the residual activity [24] of the same compound?
A: The residual activity was 95%.

Q: And the residual activity [25]?
A: The residual activity was 85%.

Q: What about the residual activity [26] of the same compound?
A: The residual activity was 100%.

Q: And the residual activity [27]?
A: Its residual activity is 41%.

Q: And the residual activity [28]?
A: Its residual activity is 87%.

Q: And the residual activity [29]?
A: Its residual activity is 100%.

Q: And the residual activity [30]?
A: Its residual activity is 91%.

Q: And the residual activity [31]?
A: The residual activity was 84%.

Q: What about the residual activity [32] of the same compound?
A: Its residual activity is 78%.

Q: What about the residual activity [33] of the same compound?
A: The residual activity was 98%.

Q: And the residual activity [34]?
A: The residual activity was 79%.

Q: What about the residual activity [35] of the same compound?
A: The residual activity was 54%.

Q: And the residual activity [36]?
A: Its residual activity is 100%.

Q: And the residual activity [37]?
A: The residual activity was 97%.

Q: And the residual activity [38]?
A: Its residual activity is 74%.

Q: What about the residual activity [39] of the same compound?
A: The residual activity was 100%.

Q: What about the residual activity [40] of the same compound?
A: Its residual activity is 83%.

Q: And the residual activity [41]?
A: The residual activity was 98%.

Q: What about the residual activity [42] of the same compound?
A: Its residual activity is 85%.

Q: What about the residual activity [43] of the same compound?
A: Its residual activity is 91%.

Q: And the residual activity [44]?
A: Its residual activity is 100%.

Q: What about the inhibition [45] of the same compound?
A: Its inhibition is 0.05%.

Q: What does the source list for `CCOC(=O)c1cc2cc(-c3cc(C(=O)NCc4ccc(C(=O)O)cc4)nn3C)ccc2[nH]1` [BI 4394]?
A: residual activity [1]: 81%; residual activity [2]: 100%; residual activity [3]: 91%; residual activity [4]: 89%; residual activity [5]: 77%; residual activity [6]: 100%; residual activity [7]: 62%; residual activity [8]: 100%; residual activity [9]: 100%; residual activity [10]: 93%; residual activity [11]: 97%; residual activity [12]: 100%; residual activity [13]: 100%; residual activity [14]: 100%; residual activity [15]: 100%; residual activity [16]: 100%; residual activity [17]: 100%; residual activity [18]: 100%; residual activity [19]: 94%; residual activity [20]: 95%; residual activity [21]: 100%; residual activity [22]: 100%; residual activity [23]: 77%; residual activity [24]: 99%; residual activity [25]: 58%; residual activity [26]: 100%; residual activity [27]: 92%; residual activity [28]: 100%; residual activity [29]: 93%; residual activity [30]: 99%; residual activity [31]: 87%; residual activity [32]: 100%; residual activity [33]: 84%; residual activity [34]: 87%; residual activity [35]: 100%; residual activity [36]: 83%; residual activity [37]: 100%; residual activity [38]: 89%; residual activity [39]: 100%; residual activity [40]: 87%; residual activity [41]: 78%; residual activity [42]: 81%; residual activity [43]: 100%; residual activity [44]: 93%; inhibition [45]: -6.49%
